In publication PMC12090182, “Repurposing of the RIPK1-Selective Benzo[1,4]oxazepin-4-one Scaffold for the Development of a Type III LIMK1/2 Inhibitor” (ACS Chemical Biology, 2025):

Target: 468 kinases including some pathogenic mutants (Mycobacterium tuberculosis, UniProt P9WI81)
Test: biochemical
Assay type: binding

CN1C(=O)[C@@H](N2CCc3c(nn(Cc4ccccc4)c3C(N)=O)C2=O)COc2cc(Cl)ccc21 [Compound 10, (S)-2-benzyl-6-(8-chloro-5-methyl-4-oxo-2,3,4,5-tetrahydrobenzo[b][1,4]oxazepin-3-yl)-7-oxo-4,5,6,7-tetrahydro-2H-pyrazolo[3,4-c]pyridine-3-carboxamide]
Percent Control: 100%
